Data reported in patent publication US20260193244A1 (Protego Biopharma, Inc., priority 2022, published 2026).
Structures can show the parent of a compound that is named as a salt.

Tested on: IRE1-XBP1s (HEK293 T-REx cells stably expressing the XBP1-RLuc splicing reporter)
Assay: IRE1-XBP1s activation Assay (XBP1-RLuc splicing reporter, luminescence relative to thapsigargin, with or without IRE1 inhibitor 4μ8C)
Type: cell-based
Conditions: 18 h, compound 10 μM, luminescence as percentage signal relative to thapsigargin (Tg) (500 nM, 18 h)
Procedure: IRE1-XBP1s activation Assay: HEK293 T-REx cells stably expressing the XBP1-RLuc splicing reporter were treated with an IRE1-XBP1s activator provided herein (10 μM) in the presence or absence of the IRE1 active site inhibitor 4μ8C (32 μM) for 18 h. Luminescence was shown as the percentage signal relative to thapsigargin (Tg) (500 nM, 18 h).

SMILES | activation at 10 µM [%]
Cc1ccc(O[C@H]2CCCN(C(=O)Cn3cc(NC(=O)CCOc4c(F)ccnc4C(C)C)cn3)C2)cc1 [Compound 159, (S)-3-((4-fluoro-2-isopropylpyridine-3-yl)oxy)-N-(1-(2-oxo-2-(3-(p-tolyloxy)piperidin-1-yl)ethyl)-1H-pyrazol-4-yl)propanamide] | ≥ 50
Cc1ccc(Oc2ccc(N(C)C(=O)Cn3cc(NC(=O)CCOc4ccccc4Cl)cn3)cc2)cc1 [Compound 24] | 30 to 50
Cc1ccc(OC2CCCN(C(=O)Cn3cc(NC(=O)CCOc4ccccc4-c4ccccc4)cn3)C2)cc1 (stereo not drawn) [Compound 74] | < 30
Cc1ccc(O[C@H]2CCCN(C(=O)Cn3cc(NC(=O)CCOc4ncncc4N)cn3)C2)cc1 [Compound 164, (S)-3-((5-aminopyrimidin-4-yl)oxy)-N-(1-(2-oxo-2-(3-(p-tolyloxy)piperidin-1-yl)ethyl)-1H-pyrazol-4-yl)propanamide] | ≥ 50
Cc1ccc(C(=O)c2ccc(N(C)C(=O)Cn3cc(NC(=O)CCOc4ccccc4)cn3)cn2)cc1 [Compound 115] | < 30
Cc1ccc(O[C@H]2CCCN(C(=O)Cn3cc(NC(=O)C4CC(Oc5ccncc5)C4)cn3)C2)cc1 (stereo partly drawn) [Compound 152] | ≥ 50
Cc1ccc(O[C@H]2CCCN(C(=O)Cn3cc(NC(=O)C4CNc5ccccc5O4)cn3)C2)cc1 (stereo partly drawn) [Compound 120] | < 30
Cc1ccc(OC2CCC23CN(C(=O)Cn2cc(NC(=O)C4CC(Oc5c(F)cncc5C(C)C)C4)cn2)C3)cc1 (stereo not drawn) [Compound 163] | ≥ 50
CC(C)c1cncc(F)c1OCCC(=O)Nc1cnn(CC(=O)N2CCC[C@H](Oc3ccc(OC(F)(F)F)cn3)C2)c1 [Compound 160] | 30 to 50
Cc1ccc(OCCN(C)C(=O)Cn2cc(NC(=O)C3Oc4cccc(C(C)C)c4O3)cn2)cc1 (stereo not drawn) [Compound 124] | < 30
O=C(Cn1cc(NC(=O)[C@H]2C[C@H](Oc3ccccn3)C2)cn1)N1CCC[C@H](Oc2ccc(C(F)(F)F)cn2)C1 [Compound 145] | < 30
Cc1ccc(OCCN(C)C(=O)Cn2cc(NC(=O)C3CC(Oc4ccncc4)CCO3)cn2)cc1 (stereo not drawn) [Compound 141] | < 30
Cc1ccc(OCCN(C)C(=O)Cn2cc(NC(=O)C3CCN(c4ccccc4)C3)cn2)cc1 (stereo not drawn) [Compound 64] | < 30
Cc1ccc(OC2CCC23CCN(C(=O)Cn2cc(NC(=O)CCOc4cccc(C)n4)cn2)C3)cc1 (stereo not drawn) [Compound 195, 3-((6-methylpyridin-2-yl)oxy)-N-(1-(2-oxo-2-(1-(p-tolyloxy)-6-azaspiro[3.4]octan-6-yl)ethyl)-1H-pyrazol-4-yl)propanamide] | ≥ 50
Cc1ccc(OCCN(C)C(=O)Cn2cc(N(C)C(=O)C3=C(c4ccccc4)CCCC3)cn2)cc1 [Compound 205] | < 30
Cc1ccc(O[C@H]2CCCN(C(=O)Cn3cc(NC(=O)[C@H]4CNc5ccccc5O4)cn3)C2)cc1 [Compound 122] | < 30
[2H]C([2H])([2H])c1ccc(OCCN(C)C(=O)Cn2cc(NC(=O)C3COc4ccccc4O3)cn2)cc1 (stereo not drawn) [Compound 200] | ≥ 50
Cc1ccc(OC2CCCN(C(=O)Cn3cc(NC(=O)CCOc4ccccc4)cn3)C2)cc1 (stereo not drawn) [Compound 11] | 30 to 50
COc1ncc(Cl)cc1NCCC(=O)Nc1cnn(CC(=O)N2CCC[C@@H](Oc3ccc(C)cc3)C2)c1 [Compound 158] | < 30
Cc1ccc(OCCN(C)C(=O)Cn2cc(NC(=O)CCN3CCOc4ccccc43)cn2)cc1 [Compound 85] | < 30
O=C(Nc1cnn(CC(=O)N2CCC[C@H](Oc3ccc(C(F)(F)F)cn3)C2)c1)C1CC(Oc2ccncc2)C1 (stereo partly drawn) [Compound 108] | < 30
O=C(CCOc1ccc(Cl)cc1)Nc1cnn(CC(=O)N2CCCCC(Oc3ccccc3)C2)c1 (stereo not drawn) [Compound 50] | < 30
Cc1ccc(OCCC(=O)Nc2cnn(CC(=O)N3CCCC(Oc4ccc(C)cc4)C3)c2)cc1 (stereo not drawn) [Compound 37] | 30 to 50
Cc1ccc(OCCN(C)C(=O)Cn2cc(NC(=O)CC3CN(C(=O)OC(C)(C)C)c4cc(F)ccc4O3)cn2)cc1 (stereo not drawn) [Compound 97] | ≥ 50
Cc1ccc(OC2CCCC23CN(C(=O)Cn2cc(NC(=O)CCOc4cccc(C)n4)cn2)C3)cc1 (stereo not drawn) [Compound 196] | ≥ 50
Cc1ccc(OCCN(C)C(=O)Cn2cc(NC(=O)COC3CCCN(c4ccnc(F)n4)C3)cn2)cc1 (stereo not drawn) [Compound 137] | < 30
Cc1ccc(C(F)(F)c2ccc(N(C)C(=O)Cn3cc(NC(=O)CCOc4ccccc4)cn3)cc2)cc1 [Compound 58] | < 30

SMILES | activation at 10 µM [%]
Cc1ccc(OCCN(C)C(=O)Cn2cc(NC(=O)OC3CCCN(c4ccnc(F)n4)C3)cn2)cc1 (stereo not drawn) [Compound 130, 1-(2-fluoropyrimidin-4-yl)piperidin-3-yl (1-(2-(methyl (2-(p-tolyl-oxy)ethyl)amino)-2-oxoethyl)-1H-pyrazol-4-yl)carbamate] | < 30
Cc1ccc(Oc2ccc(N(C)C(=O)Cn3cc(NC(=O)CCOc4ccccc4C)cn3)cc2)cc1 [Compound 32, N-(1-(2-(methyl(4-(p-tolyloxy)phenyl)amino)-2-oxoethyl)-1H-pyrazol-4-yl)-3-(o-tolyloxy)propanamide hydrochloride] | < 30
COc1ccc(OCCC(=O)Nc2cnn(CC(=O)N3CCCCC(Oc4ccccc4)C3)c2)cc1 (stereo not drawn) [Compound 47] | < 30
CN(C(=O)Cn1cc(NC(=O)CCOc2ccccc2)cn1)c1ccc(Oc2ccc(C(F)(F)F)cc2)cc1 [Compound 42, N-(1-(2-(methyl(4-(4-(trifluoromethyl)phenoxy)phenyl)amino)-2-oxoethyl)-1H-pyrazol-4-yl)-3-phenoxypropanamide hydrochloride] | < 30
O=C(CCOc1ccccc1)Nc1cnn(CC(=O)Nc2ccc(-n3cncn3)cc2)c1 [Compound 30] | < 30
Cc1ccc(OCCN(C)C(=O)Cn2cc(NC(=O)c3cnccc3NC(=O)OC(C)(C)C)cn2)cc1 [Compound 111] | ≥ 50
O=C(Nc1cnn(CC(=O)N2CCC[C@H](Oc3ccc(C(F)(F)F)cn3)C2)c1)[C@H]1COc2ccccc2O1 [Compound 188, (R)—N-(1-(2-oxo-2-((S)-3-((5-(trifluoromethyl)pyridin-2-yl)oxy)piperidin-1-yl)ethyl)-1H-pyrazol-4-yl)-2,3-dihydrobenzo[b][1, 4]dioxine-2-carboxamide] | < 30
Cc1ccc(OCCN(C)C(=O)Cn2cc(NC(=O)C3CNCC3Nc3ccnc(F)n3)cn2)cc1 (stereo not drawn) [Compound 203] | < 30
CN(CCOc1ccc(C(F)(F)F)cn1)C(=O)Cn1cc(NC(=O)[C@H]2COc3ccccc3O2)cn1 [Compound 192] | 30 to 50
Cc1ccc(OCCN(C)C(=O)Cn2cc(NC(=O)C3COc4ccccc43)cn2)cc1 (stereo not drawn) [Compound 67] | < 30
Cc1ccc(OCCN(C)C(=O)Cn2cc(NC(=O)C3CCC(Oc4ccncc4)C3)cn2)cc1 (stereo not drawn) [Compound 104] | ≥ 50
Cc1ccc(OCCN(C)C(=O)Cn2cc(NC(=O)C3CCCC3Nc3ccnc(F)n3)cn2)cc1 (stereo not drawn) [Compound 166] | < 30
O=C(Nc1cnn(CC(=O)N2CCC[C@H](Oc3ccc(C(F)(F)F)cn3)C2)c1)[C@@H]1COc2ccccc2O1 [Compound 189] | < 30
Cc1ccc(OCCN(C)C(=O)Cn2cc(NC(=O)CC3CCc4cc(F)ccc4O3)cn2)cc1 (stereo not drawn) [Compound 110] | < 30
O=C(CCOc1ccccc1)Nc1cnn(CC(=O)Nc2ccc(C3CCCCC3)cc2)c1 [Compound 31] | < 30
Cc1ccc(OC2(C)CCCN(C(=O)Cn3cc(NC(=O)CCOc4ccccc4F)cn3)C2)c(N)c1 (stereo not drawn) [Compound 69, N-(1-(2-(3-(2-amino-4-methylphenoxy)-3-methylpiperidin-1-yl)-2-oxoethyl)-1H-pyrazol-4-yl)-3-(2-fluorophenoxy)propanamide] | < 30
Cc1ccc(O[C@H]2CCCN(C(=O)Cn3cc(NC(=O)COc4ccccc4)cn3)C2)cc1 [Compound 146, N-[1-[2-[(3S)-3-(4-methylphenoxy)-1-piperidyl]-2-oxo-ethyl]pyrazol-4-yl]-2-phenoxy-acetamide] | < 30
Cc1ccc(OCCC(=O)Nc2cnn(CC(=O)N(C)c3ccc(Oc4ccc(C)cc4)cc3)c2)cc1 [Compound 27] | < 30
Cc1ccccc1OCCC(=O)Nc1cnn(CC(=O)N2CCCCC(Oc3ccccc3)C2)c1 (stereo not drawn) [Compound 49] | < 30
Cc1ccc(O[C@H]2CCCN(C(=O)Cn3cc(NC(=O)CCNc4nccc(F)n4)cn3)C2)cc1 [Compound 136] | < 30
Cc1cccc(OCCC(=O)Nc2cnn(CC(=O)N(C)c3ccccc3Oc3ccccc3)c2)c1 [Compound 43] | < 30
Cc1ccc(OCCN(C)C(=O)Cn2cc(NC(=O)C3Oc4ccccc4O3)cn2)cc1 [Compound 128] | < 30
Cc1c(F)cc(O[C@@H]2CCCN(C(=O)Cn3cc(NC(=O)CCNc4ccnc(F)n4)cn3)C2)cc1F [Compound 173] | 30 to 50
Cc1ccc(OCCN(C)C(=O)Cn2cc(NC(=O)c3ccc(Oc4ccccc4)cc3)cn2)cc1 [Compound 3] | < 30
Cc1ccc(OCCN(C)C(=O)Cn2cc(NC(=O)C34CC(Nc5ncc(F)cn5)(C3)C4)cn2)cc1 [Compound 169, 3-[(5-fluoropyrimidin-2-yl)amino]-N-[1-[2-[methyl-[2-(4-methylphenoxy)ethyl]amino]-2-oxo-ethyl]pyrazol-4-yl]bicyclo[1.1.1]pentane-1-carboxamide] | < 30
COc1ncc(Cl)cc1NCCC(=O)Nc1cnn(CC(=O)N2CCC[C@H](Oc3ccc(C)cc3)C2)c1 [Compound 157] | ≥ 50
Cc1ccc(OCCN(C)C(=O)Cn2cc(NC(=O)C3CC(Nc4ccncc4)C3)cn2)cc1 (stereo not drawn) [Compound 135] | < 30
